Tests used:
human MR (hMR) [1] = target: T1, human MR (hMR) (Homo sapiens, UniProt P08235); experiment: [3H]-aldosterone displacement from human MR, ligand-receptor binding assay in transfected COS-7 cells; conditions: 1 nM [3H]-aldosterone, increasing concentrations of unlabeled ligand, one-site model
T1 construct: expressed in transfected cells; host or cells: COS-7
T1 sequence (P08235 1-984): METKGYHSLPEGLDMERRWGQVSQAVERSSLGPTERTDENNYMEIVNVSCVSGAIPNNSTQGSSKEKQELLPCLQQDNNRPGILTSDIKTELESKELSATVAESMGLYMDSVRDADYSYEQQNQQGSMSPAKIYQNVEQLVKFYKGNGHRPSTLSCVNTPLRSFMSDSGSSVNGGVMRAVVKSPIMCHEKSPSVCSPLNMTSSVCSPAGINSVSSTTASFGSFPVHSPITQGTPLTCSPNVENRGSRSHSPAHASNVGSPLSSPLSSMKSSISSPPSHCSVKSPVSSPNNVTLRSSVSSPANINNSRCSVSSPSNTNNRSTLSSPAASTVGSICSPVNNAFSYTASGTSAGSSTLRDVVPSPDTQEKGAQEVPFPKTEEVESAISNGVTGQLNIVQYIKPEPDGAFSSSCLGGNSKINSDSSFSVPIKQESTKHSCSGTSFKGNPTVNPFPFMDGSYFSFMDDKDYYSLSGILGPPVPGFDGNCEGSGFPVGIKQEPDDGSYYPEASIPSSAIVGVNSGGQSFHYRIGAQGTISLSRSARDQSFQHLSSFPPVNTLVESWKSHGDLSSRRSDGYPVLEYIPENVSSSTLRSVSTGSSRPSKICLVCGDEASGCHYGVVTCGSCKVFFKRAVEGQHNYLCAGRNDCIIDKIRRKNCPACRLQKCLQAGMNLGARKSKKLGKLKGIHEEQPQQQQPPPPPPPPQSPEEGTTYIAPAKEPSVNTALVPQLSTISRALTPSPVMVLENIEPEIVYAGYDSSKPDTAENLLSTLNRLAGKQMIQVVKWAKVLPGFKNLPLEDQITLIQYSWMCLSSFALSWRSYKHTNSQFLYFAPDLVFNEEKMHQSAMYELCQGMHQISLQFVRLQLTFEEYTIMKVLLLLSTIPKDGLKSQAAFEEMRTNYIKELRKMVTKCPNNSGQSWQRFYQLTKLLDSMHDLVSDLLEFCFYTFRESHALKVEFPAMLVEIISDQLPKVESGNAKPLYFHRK
Experimental: Ligand-receptor binding assays were performed as described before. Briefly, COS-7 cells were seeded on 24-well plates and transfected with plasmid pcDNA3-hMR. Twenty-four hours after transfection, cells were washed once with serum-free DMEM and incubated for 2 h in 500 μL of the same medium containing the indicated concentration of each compound. After this initial period, cells were further incubated with the indicated compounds and 1 × 10^−9 M [^3H]-aldosterone (PerkinElmer Life Sciences, Waltham, MA, USA) for one additional hour. Cells were then washed twice with phosphate-buffered saline (PBS: 137 mM NaCl, 2,7 mM KCl, 10 mM Na2HPO4, 1.8 mM KH2PO4, pH 7.4) and then extracted with 200 μL of an ethanol:water mix (4:1, v:v). Disintegrations were recorded using liquid scintillation in a β counter. Control conditions included non-transfected cells, transfected cells treated with unlabeled aldosterone or transfected cells, treated with 1 nM [^3H]-aldosterone in the presence of 1 × 10^−5 M unlabeled aldosterone. Specific binding was determined by subtracting the number of disintegrations per minute (dpm) in the presence of 1 × 10^−5 M unlabeled aldosterone from the condition with 1 nM [^3H]-aldosterone. Each condition was performed in triplicate. Competition of each compound for 1 nM [^3H]-aldosterone binding was calculated as the percentage of the maximum binding obtained in the absence of compound.

human MR (hMR) [2] = target: T1, human MR (hMR); experiment: MR gene reporter transactivation assay in transiently transfected COS-7 cells; format: cell-based; conditions: 1,4-DHP derivative 5 μM, 10 nM aldosterone stimulation
Experimental: Receptor transcriptional activity was assessed using a transactivation gene reporter assay, as described. Briefly, COS-7 cells were seeded on 96-well plates in DMEM supplemented with 10% charcoal-stripped FBS (Biowest, Nuaillé, France). Twenty-four hours after seeding, cells were transfected with pcDNA3-hMR, pcDNA3-hGR, or pCMV-FLAG-hAR in combination with pSG5-luc and pSG5-ren in a 5:4:1 proportion, respectively. […] After 2 h of incubation, cells were further treated with agonists (1 × 10^−8 M aldosterone; 1 × 10^−8 M testosterone or 0.5 × 10^−6 M cortisol) in the presence of each compound for 16 h. […] MR maximum and minimum activity were obtained in each assay using conditions with 1 × 10^−9 M aldosterone or vehicle (ethanol). Each condition was performed in three parallel wells. After treatments, firefly and Renilla luciferase activities were measured sequentially in the cell lysates using a commercially available kit (Dual-Glo; Promega, Madison, WI, USA). Receptor transcriptional activity was calculated as the ratio luc/ren. The activities in each condition were normalized to the activity obtained with vehicle or with agonist as indicated in each figure panel and are expressed a as percentage of the maximum value ± SD.

human AR = target: T2, human AR (Homo sapiens, UniProt P10275); experiment: AR reporter gene transactivation assay in COS-7 cells; format: cell-based; conditions: 5 μM derivative, stimulation by 10 nM testosterone
T2 construct: Plasmid pCMV-FLAG-hAR, expressing full-length human AR; host or cells: COS-7
T2 sequence (P10275 1-920): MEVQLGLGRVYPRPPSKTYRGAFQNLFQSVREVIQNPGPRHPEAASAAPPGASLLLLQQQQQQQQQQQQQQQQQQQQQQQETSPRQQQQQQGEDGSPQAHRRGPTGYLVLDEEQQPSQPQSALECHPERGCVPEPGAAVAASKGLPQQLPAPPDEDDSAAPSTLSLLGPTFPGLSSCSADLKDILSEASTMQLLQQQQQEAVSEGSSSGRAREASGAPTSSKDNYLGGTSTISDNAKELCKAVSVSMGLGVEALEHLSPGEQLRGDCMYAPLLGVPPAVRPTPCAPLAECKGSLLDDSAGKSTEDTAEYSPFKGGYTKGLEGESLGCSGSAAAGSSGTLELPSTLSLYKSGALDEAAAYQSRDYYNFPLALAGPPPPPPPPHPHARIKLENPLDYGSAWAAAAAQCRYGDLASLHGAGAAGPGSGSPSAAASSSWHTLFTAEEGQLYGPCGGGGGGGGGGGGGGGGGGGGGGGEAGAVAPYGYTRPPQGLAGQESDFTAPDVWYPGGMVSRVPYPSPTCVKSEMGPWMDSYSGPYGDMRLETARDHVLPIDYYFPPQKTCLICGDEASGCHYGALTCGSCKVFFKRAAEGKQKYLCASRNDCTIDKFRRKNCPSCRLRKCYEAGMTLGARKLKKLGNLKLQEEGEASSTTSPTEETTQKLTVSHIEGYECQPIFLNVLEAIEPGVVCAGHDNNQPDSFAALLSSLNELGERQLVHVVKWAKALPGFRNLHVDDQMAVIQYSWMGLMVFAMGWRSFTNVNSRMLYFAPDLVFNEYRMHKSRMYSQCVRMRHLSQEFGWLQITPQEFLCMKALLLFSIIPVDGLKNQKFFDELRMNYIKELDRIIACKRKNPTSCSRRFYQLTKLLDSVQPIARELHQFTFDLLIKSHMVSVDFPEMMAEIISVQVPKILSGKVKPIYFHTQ
Experimental: Receptor transcriptional activity was assessed using a transactivation gene reporter assay, as described. Briefly, COS-7 cells were seeded on 96-well plates in DMEM supplemented with 10% charcoal-stripped FBS (Biowest, Nuaillé, France). Twenty-four hours after seeding, cells were transfected with pcDNA3-hMR, pcDNA3-hGR, or pCMV-FLAG-hAR in combination with pSG5-luc and pSG5-ren in a 5:4:1 proportion, respectively. […] After 2 h of incubation, cells were further treated with agonists (1 × 10^−8 M aldosterone; 1 × 10^−8 M testosterone or 0.5 × 10^−6 M cortisol) in the presence of each compound for 16 h. Assays using hMR included a control condition with 0.25 × 10^−6 M eplerenone. MR maximum and minimum activity were obtained in each assay using conditions with 1 × 10^−9 M aldosterone or vehicle (ethanol). Each condition was performed in three parallel wells. After treatments, firefly and Renilla luciferase activities were measured sequentially in the cell lysates using a commercially available kit (Dual-Glo; Promega, Madison, WI, USA). Receptor transcriptional activity was calculated as the ratio luc/ren. The activities in each condition were normalized to the activity obtained with vehicle or with agonist as indicated in each figure panel and are expressed a as percentage of the maximum value ± SD.

SMILES: COC(=O)C1=C(CNC(=O)OCc2ccccc2)NC(C)=C(C#N)C1c1ccc(C#N)cc1OC (stereo not drawn) [Compound 16, Methyl 2-[(benzyloxycarbonyl)amino]methyl-5-cyano-4-(4-cyano-2-methoxy)phenyl-6-methyl-1,4-dihydropyridine-3-carboxylate]
- Ki (human MR (hMR) [1]): 262 nM
- MR activity, % of the maximal activity (human MR (hMR) [2]): 57%
- decrease of AR activation (human AR): 15%

From article PMC9917360, “Novel 1,4-Dihydropyridine Derivatives as Mineralocorticoid Receptor Antagonists” (International Journal of Molecular Sciences, 2023)
